Results published in patent US4743587A, “Hydroxamic acid based collagenase inhibitors” (G. D. Searle & Co., priority 1986, dated 1988).

The compounds below were run against T1, Human Rheumatoid Synovial Collagenase (Homo sapiens, UniProt P03956) (assay: Collagenase inhibition (acetyl 14C collagen hydrolysis, procedure of Cawston and Barrett)). Conditions: incubated at 37° C. for 16 hours with native acetyl 14C collagen and collagenase, Tris HCl-CaCl2, pH 7.6.
T1 construct: from tissue
T1 sequence (P03956 100-469): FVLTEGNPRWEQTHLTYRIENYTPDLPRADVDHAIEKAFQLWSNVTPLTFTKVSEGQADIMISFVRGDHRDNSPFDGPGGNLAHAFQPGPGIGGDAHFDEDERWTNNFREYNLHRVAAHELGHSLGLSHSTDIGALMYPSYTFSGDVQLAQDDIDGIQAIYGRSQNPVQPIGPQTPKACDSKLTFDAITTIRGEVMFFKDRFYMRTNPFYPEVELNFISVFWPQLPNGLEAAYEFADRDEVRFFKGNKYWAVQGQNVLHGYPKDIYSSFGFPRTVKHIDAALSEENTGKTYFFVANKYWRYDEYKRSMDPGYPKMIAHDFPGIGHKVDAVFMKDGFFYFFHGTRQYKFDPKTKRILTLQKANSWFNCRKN
Type: biochemical
Procedure: This was determined following the procedure of Cawston and Barrett, (Anal. […] The collagen is acetyl ^14 C collagen. The samples are centrifuged to sediment undigested collagen and an aliquot of the radioactive supernatant removed for assay on a scintillation counter as a measure of hydrolysis.

IC50 [µM]	Compound
> 100	CNC(=O)[C@H](Cc1ccc(OC)cc1)NC(=O)C(CC(=O)NO)Cc1ccccc1 (single isomer, unassigned) [13(B), N-[3-(N'-Hydroxycarboxamido)-2-benzylpropanoyl]-O-methyl-L-tyrosine N-Methylamide]
0.2	CCCCC(C(=O)NO)C(CC(C)C)C(=O)N[C@@H](Cc1ccc(OC)cc1)C(=O)NC (single isomer, unassigned) [18(A), N-[3-(N'-Hydroxycarboxamido)-2-(2-methylpropyl)heptanoy]-O-methyl-L-tyrosine N-Methylamide]
> 100	CCCCC(C(=O)NO)C(CC(C)C)C(=O)N[C@@H](Cc1ccc(OC)cc1)C(=O)NC (single isomer, unassigned) [18(B), N-[3-(N'-Hydroxycarboxamido)-2-(2-methylpropyl)heptanoy]-O-methyl-L-tyrosine N-Methylamide]
100	CNC(=O)[C@H](C)NC(=O)C(CC(C)C)C(C)C(=O)NO (single isomer, unassigned) [19(A), N-[3-(N'-Hydroxycarboxamido)-2-(2-methylpropyl)butanoyl]-L-alanine N-Methylamide]
0.3	CNC(=O)[C@H](C)NC(=O)C(CC(C)C)C(C)C(=O)NO (single isomer, unassigned) [19(B), N-[3-(N'-Hydroxycarboxamido)-2-(2-methylpropyl)butanoyl]-L-alanine N-Methylamide]
100 to 1000	CNC(=O)[C@H](Cc1ccc(OC)cc1)NC(=O)C(C)CC(=O)NO (stereo partly drawn) [Example 5, N-[3-(N'-Hydroxycarboxamido)-2-methylpropanoyl]-O-methyl-L-tyrosine N-Methylamide]
> 1000	CNC(=O)[C@H](Cc1ccc(OC)cc1)NC(=O)CCC(=O)NO [Example 6, N-[3-(N'-Hydroxycarboxamido)propanoyl]-O-methyl-L-tyrosine N-Methylamide]
0.7	CNC(=O)[C@H](Cc1ccc(OC)cc1)NC(=O)C(=CC(=O)NO)CC(C)C [Example 7, N-[3-(N'-Hydroxycarboxamido)-2-(2-methylpropyl)propenoyl]-O-methyl-L-tyrosine N-Methylamide]
1	CNC(=O)[C@H](Cc1ccc(OC)cc1)NC(=O)C(CC(C)C)=C(C)C(=O)NO [Example 20, N-[3-(N'-Hydroxycarboxamido)-2-(2-methylpropyl)-Δ^2,3-butenoyl]-O-methyl-L-tyrosine N Methylamide]

Second part, the compound before the results:

Compound	IC50 [µM]
CNC(=O)[C@H](Cc1ccc(OC)cc1)NC(=O)C(CC(C)C)C(C)C(=O)NO (single isomer, unassigned) [3(A), N-[3-(N'-Hydroxycarboxamido)-2-(2-methylpropyl)butanoyl]-O-methyl-L-tyrosine N-Methylamide]	0.4
CNC(=O)[C@H](Cc1ccc(OC)cc1)NC(=O)C(CC(C)C)C(C)C(=O)NO (single isomer, unassigned) [3(B), N-[3-(N'-Hydroxycarboxamido)-2-(2-methylpropyl)butanoyl]-O-methyl-L-tyrosine N-Methylamide]	20
CNC(=O)[C@H](Cc1ccc(OC)cc1)NC(=O)C(CC(C)C)C(C)C(=O)NO (single isomer, unassigned) [3(C), N-[3-(N'-Hydroxycarboxamido)-2-(2-methylpropyl)butanoyl]-O-methyl-L-tyrosine N-Methylamide]	0.02
CNC(=O)[C@H](Cc1ccc(OC)cc1)NC(=O)C(CC(C)C)C(C)C(=O)NO (single isomer, unassigned) [3(D), N-[3-(N'-Hydroxycarboxamido)-2-(2-methylpropyl)butanoyl]-O-methyl-L-tyrosine N-Methylamide]	0.3
CNC(=O)[C@H](Cc1ccc(OC)cc1)NC(=O)C(CC(C)C)C(C(=O)NO)c1ccccc1 (single isomer, unassigned) [4(A), N-[3-(N'-Hydroxycarboxamido)-2-(2-methylpropyl)-3-phenylpropanoyl]-O-methyl-L-tyrosine N-Methylamide]	0.6
CNC(=O)[C@H](Cc1ccc(OC)cc1)NC(=O)C(CC(C)C)C(C(=O)NO)c1ccccc1 (single isomer, unassigned) [4(B), N-[3-(N'-Hydroxycarboxamido)-2-(2-methylpropyl)-3-phenylpropanoyl]-O-methyl-L-tyrosine N-Methylamide]	1
CNC(=O)[C@H](C)NC(=O)C(CC(=O)NO)CC(C)C (single isomer, unassigned) [8(A), N-[3-(N'-Hydroxycarboxamido)-2-(2-methylpropyl)propanoyl]-L-alanine N-Methylamide]	0.15
CNC(=O)[C@H](Cc1ccc(O)cc1)NC(=O)C(CC(=O)NO)CC(C)C (single isomer, unassigned) [9(A), N-[3-(N'-Hydroxycarboxamido)-2-(2-methylpropyl)propanoyl]-L-tyrosine N-Methylamide]	0.037
CNC(=O)[C@H](Cc1ccc(O)cc1)NC(=O)C(CC(=O)NO)CC(C)C (single isomer, unassigned) [9(B), N-[3-(N'-Hydroxycarboxamido)-2-(2-methylpropyl)propanoyl]-L-tyrosine N-Methylamide]	0.52
CCCCC(CC(=O)NO)C(=O)N[C@@H](Cc1ccc(OC)cc1)C(=O)NC (single isomer, unassigned) [12(B)]	1
CNC(=O)[C@H](Cc1ccc(OC)cc1)NC(=O)C(CC(=O)NO)Cc1ccccc1 (single isomer, unassigned) [13(A), N-[3-(N'-Hydroxycarboxamido)-2-benzylpropanoyl]-O-methyl-L-tyrosine N-Methylamide]	5
CCCCC(CC(=O)NO)C(=O)N[C@@H](Cc1ccc(OC)cc1)C(=O)NC (stereo partly drawn) [12(A)]	0.03
